From patent US20260042747A1, “KIT INHIBITORS, COMPOUNDS, PHARMACEUTICAL COMPOSITIONS, AND METHODS OF USE THEREOF” (Alivexis, Inc., priority 2022, published 2026)
Structures can show the parent of a compound that is named as a salt. Where two headings read alike, the source gives them in different places.

How the values were obtained:
[1] = target: recombinant human KIT tyrosine kinase protein (Homo sapiens (Human), UniProt P10721); assay: KIT tyrosine kinase assay (ADP-Glo); assay type: biochemical
Experimental: An in vitro assay utilizing the recombinant human KIT tyrosine kinase protein was developed to measure compound inhibition of KIT. KIT tyrosine kinase activity was measured by the ADP-Glo Kinase Assay system with poly […]) peptide substrate. Kinase Assay was performed in white 384-well plates and the luminescence was measured by Victor X5 Multilabel Counter (Perkin Elmer). Recombinant intracellular domain of human KIT protein was purchased from Carna Biosciences (Kobe, Japan). Poly […]) peptide was purchased from Sigma-Aldrich (St. Louis, Missouri, USA). ADP-Glo Kinase Assay reagent was purchased from Promega (Madison, Wisconsin, USA). Each test compound was dissolved in 100% DMSO to prepare 10 mM stock solutions. […] After the preincubation, 3 μL of substrate/ATP mixture was added and incubated for 1 hour at room temperature. The tyrosine phosphorylation by KIT kinase was quantified by ADP-Glo kinase assay kit following the manufacturer's protocol. Briefly, the phosphorylation reaction was terminated by adding 10 μL ADP-Glo reagent and incubated for 60 minutes at room temperature. 20 μL of Kinase Detection Reagent was added to each well and luminescence was measured by plate reader. […] Half maximal inhibitory concentration (IC50) was calculated by a Four […] Logistic Regression model using GraphPad Prism (GraphPad Software). The value without recombinant KIT protein and without test compound was used as a negative control (assay background).

M-07e cells = assay: SCF-dependent M-07e cell proliferation assay; assay type: cell-based, human; conditions: read-out: M-07e IC50
Experimental: SCF-dependent cell proliferation assay was developed to measure the inhibitory potency of the compounds in M-07e cells, which express wild-type human KIT protein. The assay was performed in 96-well plates and the IC50 of each KIT inhibitor was determined by CellTiter Glo Assay reagent and Victor X5 Multilabel Counter (Perkin Elmer).
M-07e cells were purchased from AcceGen Biotechnology. Cells were maintained with M-07e Growth medium: RPMI-1640 containing 20% FBS, 100 U/mL penicillin and 100 microgram/mL streptomycin, 10 ng/mL rhGM-CSF, 10 ng/mL rhSCF. M-07e cells were seeded at a density of 5000 cells/90 μL/well in 96-well plates. Test compounds were dissolved in 100% DMSO to make 20 mM stock solution and serially diluted 1:3 with 100% DMSO to make an 11-point dilution series with concen-trations from […] to 0.024 μM. The serially diluted compounds were then each diluted 1:50 with culture medium to obtain assay compound solutions containing 2% DMSO. Ten μL of assay compound solutions were added to the 90 μL of culture cell suspension in the 96-well plate, with a final DMSO concentration of 0.2%. The plates were then incubated in a 5% CO2 incubator at 37° C. for 3 days. To obtain Day Zero Controls for background calculation, cells were seeded at 5000 cells/100 μL in a new 96-well plate and processed on the same day. Both Day Zero controls and 3 day culture plates were then treated as follows. 100 μL of CellTiter Glo Assay reagent was added to each well and the plate was incubated at room temperature for 15 min on a shaker at 200-300 RPM. Then 100 μL of cell lysate samples were transferred to white wall 96-well plates and luminescence was measured by a plate reader. The luminescence of Day Zero Control was subtracted from the luminescence intensity of 3 day culture readings. The assay control for this experiment was cells treated with 0.2% DMSO in culture medium and wells with 100 μL of culture medium (0.2% DMSO without cells) were used as the blank for data analysis.
The IC50 value of each compound was determined by using % inhibition by nor-malizing inhibition in DMSO treated control wells to 0% using the following formula method: […]
Plot percent inhibition in proliferation of triplicates against the respective concen-trations of compound and fit the dose response curve using the sigmoidal dose response equation to generate the IC50 in GraphPad Prism 8 software.

[2] = Homo sapiens, M-07e, 72 h, SCF-dependent M-07e cell proliferation, 3 days, CellTiter Glo
[3] = SCF-dependent M-07e cell proliferation, 3 days, CellTiter Glo

Chain of recombinant human KIT tyrosine kinase protein (P10721 546-976): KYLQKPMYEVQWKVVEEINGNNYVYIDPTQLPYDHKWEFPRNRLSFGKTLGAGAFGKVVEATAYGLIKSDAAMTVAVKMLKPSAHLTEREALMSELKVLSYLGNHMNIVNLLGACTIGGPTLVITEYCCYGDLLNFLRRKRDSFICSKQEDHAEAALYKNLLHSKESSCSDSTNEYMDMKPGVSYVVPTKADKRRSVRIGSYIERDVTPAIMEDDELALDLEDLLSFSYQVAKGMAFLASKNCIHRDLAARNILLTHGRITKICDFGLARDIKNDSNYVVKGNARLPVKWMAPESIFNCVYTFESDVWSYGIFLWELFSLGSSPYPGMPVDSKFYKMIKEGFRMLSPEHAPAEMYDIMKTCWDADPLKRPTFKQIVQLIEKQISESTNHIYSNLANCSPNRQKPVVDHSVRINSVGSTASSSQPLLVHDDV

Compound	IC50 ([1]; Table 98) [nM]	IC50 (M-07e cells; [2]) [nM]	IC50 (M-07e cells; Homo sapiens, M-07e, 72 h) [nM]	IC50 ([1]; Table 99) [nM]	IC50 (M-07e cells; [3]) [nM]
CC(c1ccc(F)cc1)c1ccc(CNC(=O)c2ccc3c(c2)[nH]c(=O)n3C)cn1 (centres unmarked) [Compound 15, N-((6-(1-(4-Fluorophenyl)ethyl)pyridin-3-yl)methyl)-1-methyl-2-oxo-2,3-dihydro-1H-be nzimidazole-5-carboxamide]	67	2200	–	–	–
CN(CC1CCCOC1)c1ccc(CNC(=O)c2ccc3c(c2)[nH]c(=O)n3C)cn1 (centres unmarked) [Example 69]	96	–	520	–	–
CN(c1ccc(CNC(=O)c2cc3[nH]c(=O)[nH]c3cc2F)cn1)C1CCC(F)(F)C1 (centres unmarked) [Example 140]	–	99	–	18	–
Cn1c(=O)[nH]c2cc(C(=O)NCc3ccc(OC4CC(C(F)(F)F)C4)nc3)ccc21 (centres unmarked) [Compound 103, 1-Methyl-2-oxo-N-((6-(3-(trifluoromethyl)cyclobutoxy)pyridin-3-yl)methyl)-2,3-dihyd ro-1H-benzimidazole-5-carboxamide]	–	819	–	42	–
CC(N(C)c1ccc(CNC(=O)c2ccc3c(c2)[nH]c(=O)n3C)cn1)C(F)(F)F (centres unmarked) [Example 86]	15	–	120	–	–
CCN(c1ccc(F)cc1)c1ccc(CNC(=O)c2ccc3c(c2)[nH]c(=O)n3C)cn1 [Example 58]	21	–	2400	–	–
CN(c1ccc(CNC(=O)c2ccc3c(c2)[nH]c(=O)n3C)cn1)C1CC2C(C1)C2(F)F (centres unmarked) [Example 108, N-((6-((6,6-Difluorobicyclo[3.1.0]hexan-3-yl)(methyl)amino)pyridin-3-yl)methyl)-1-met hyl-2-oxo-2,3-dihydro-1H-benzimidazole-5-carboxamide]	–	65	–	22	–
CN(c1ccc(CNC(=O)c2cc3[nH]c(=O)n(C)c3cc2F)cn1)C1CC(F)(F)C1 [Example 139]	–	636	–	75	–
CN(Cc1ccccc1)c1ccc(CNC(=O)c2ccc3c(c2)[nH]c(=O)n3C)cn1 [Example 66]	33	–	79	–	–
CN(c1ccc(CNC(=O)c2ccc3c(c2)[nH]c(=O)n3C)cn1)C1CC(OC(F)(F)F)C1 (single isomer, unassigned) [107 Isomer I, 1-Methyl-N-((6-(methyl(3-(trifluoromethoxy)cyclobutyl)amino)pyridin-3-yl)methyl)-2-oxo-2,3-dihydro-1H-benzimidazole-5-carboxamide]	–	–	–	18	47
CN(c1ccc(CNC(=O)c2ccc3c(c2)[nH]c(=O)n3C)cn1)[C@H]1CC[C@@H](F)C1 [Example 110, N-((6-(((1S,3R)-3-Fluorocyclopentyl)(methyl)amino)pyridin-3-yl)methyl)-1-methyl-2-ox o-2,3-dihydro-1H-benzimidazole-5-carboxamide]	–	55	–	33	–
CN(c1ccc(CNC(=O)c2ccc3c(c2)[nH]c(=O)n3C)cn1)c1ccc(F)cc1F [Example 62]	170	–	290	–	–
CN(c1ccc(CNC(=O)c2cc(F)c3[nH]c(=O)[nH]c3c2)cn1)[C@H]1C[C@@H](C(F)(F)F)C1 [Example 142]	–	–	278	18	–
CN(CC1CCOCC1)c1ccc(CNC(=O)c2ccc3c(c2)[nH]c(=O)n3C)cn1 [Example 72]	84	–	800	–	–
Cn1c(=O)[nH]c2cc(C(=O)NCc3cnc(N(C)[C@H]4C[C@@H](C(F)(F)F)C4)cn3)ccc21 [Example 95]	24	–	190	–	–
CN(c1ccc(CNC(=O)c2cc3[nH]c(=O)[nH]c3c(F)c2F)cn1)C1CCC(F)(F)C1 (centres unmarked) [Example 146]	–	621	–	30	–
CN(CC1CCCCO1)c1ccc(CNC(=O)c2ccc3c(c2)[nH]c(=O)n3C)cn1 (centres unmarked) [Example 71]	60	–	310	–	–

Compound	IC50 ([1]; Table 98) [nM]	IC50 (M-07e cells; [2]) [nM]	IC50 (M-07e cells; Homo sapiens, M-07e, 72 h) [nM]	IC50 ([1]; Table 99) [nM]	IC50 (M-07e cells; [3]) [nM]
Cn1c(=O)[nH]c2cc(C(=O)NCc3cnc4c(ccn4-c4ccccc4)c3)ccc21 [Compound 20, 1-Methyl-2-oxo-N-((1-phenyl-1H-pyrrolo[2,3-b]pyridin-5-yl)methyl)-2,3-dihydro-1H-benzimidazole-5-carboxamide]	38	400	–	–	–
CN(c1ccc2c(c1)COC2)c1ccc(CNC(=O)c2ccc3c(c2)[nH]c(=O)n3C)cn1 [Example 119]	–	–	423	40	–
CN(c1ccc(CNC(=O)c2ccc3c(c2)[nH]c(=O)n3C)cn1)C12CC(C1)C2 [Example 75]	61	–	500	–	–
Cn1c(=O)[nH]c2cc(C(=O)NCc3ccc(N4CCCC4(C)C)nc3)ccc21 [Example 97]	34	–	240	–	–
CN(c1ccc(CNC(=O)c2ccc3c(c2)[nH]c(=O)n3C)cn1)C12CC(C(F)(F)F)(C1)C2 [Example 80]	31	–	240	–	–
CN(c1ccc(CNC(=O)c2cc(Cl)c3[nH]c(=O)[nH]c3c2)cn1)[C@H]1C[C@@H](C(F)(F)F)C1 [compound 141]	–	–	–	27	153
CN(c1ccc(CNC(=O)c2ccc3c(c2)[nH]c(=O)n3C)cn1)C1CC2(COC2)C1 [Example 121]	–	–	1350	59	–
CN(c1ccc(CNC(=O)c2ccc3c(c2)[nH]c(=O)n3C)cn1)C1CCCC(O)C1 (centres unmarked) [Example 104, N-((6-((3-Hydroxycyclohexyl)(methyl)amino)pyridin-3-yl)methyl)-1-methyl-2-oxo-2,3-d ihydro-1H-benzimidazole-5-carboxamide]	–	7660	–	51	–
CN(c1ccc(CNC(=O)c2ccc3c(c2)[nH]c(=O)n3C)cn1)C1CC(OC(F)F)C1 (single isomer, unassigned) [106 Isomer II, N-((6-((3-(Difluoromethoxy)cyclobutyl)(methyl)amino)pyridin-3-yl)methyl)-1-methyl-2-oxo-2,3-dihydro-1H-benzimidazole-5-carboxamide]	–	–	–	22	89
Cn1c(=O)[nH]c2cc(C(=O)NCc3ccc(Oc4cccc(F)c4F)nc3)ccc21 [Example 36]	50	–	870	–	–
CN(c1ncc(CNC(=O)c2ccc3c(c2)[nH]c(=O)n3C)s1)C1CCC(F)(F)CC1 [Example 90]	48	–	1800	–	–
CC(C)N(C)c1ccc(CNC(=O)c2ccc3c(c2)[nH]c(=O)n3C)cn1 [Compound 11b, N-((6-(Isopropyl(methyl)amino)pyridin-3-yl)methyl)-1-methyl-2-oxo-2,3-dihydro-1H-be nzimidazole-5-carboxamide hydrochloride]	96	220	–	–	–
CN(c1ccc(CNC(=O)c2ccc3c(c2)[nH]c(=O)n3C)cn1)C1CCC(F)(F)CC1 [Compound 10, N-((6-((4,4-Difluorocyclohexyl)(methyl)amino)pyridin-3-yl)methyl)-1-methyl-2-oxo-2,3-dihydro-1H-benzimidazole-5-carboxamide]	–	240	–	–	–
CN(c1ccc(CNC(=O)c2ccc3[nH]c(=O)[nH]c3c2)cn1)C1CCC(F)(F)CC1 [Example 128]	–	2830	–	–	–
Cn1c(=O)[nH]c2cc(C(=O)NCc3ccc(Oc4cccc(C#N)c4)nc3)ccc21 [Compound 22, N-((6-(3-Cyanophenoxy)pyridin-3-yl)methyl)-1-methyl-2-oxo-2,3-dihydro-1H-benzimid azole-5-carboxamide trifluoroacetate]	460	–	–	–	–
CC(NC(=O)c1ccc2c(c1)[nH]c(=O)n2C)c1ccc(Oc2ccc(F)cc2)nc1 (single isomer, unassigned) [Compound 6 Peak 1, N-(1-(6-(4-Fluorophenoxy)pyridin-3-yl)ethyl)-1-methyl-2-oxo-2,3-dihydro-1H-benzimid azole-5-carboxamide]	–	680	–	–	–
